In PubChem BioAssay (NCI):
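Each compound was tested at five concentrations against cells in 96-well plates for 48 hours. GI50 = concentration required for 50% inhibition of growth. TGI marks complete inhibition of growth.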 Where a SMILES comes first, the peptide text is derived from it. The star is where a group is joined. Boc = CC(C)(C)OC(=O)*; OBn = c1ccc(CO*)cc1

Legend:
Test in all cases: NCI-60 cell line screen, 48 h
786-0 renal = test system: 786-0 renal
K-562 leukemia = test system: K-562 leukemia
LOX IMVI melanoma = test system: LOX IMVI melanoma
MDA-MB-231 breast = test system: MDA-MB-231 breast
NCI-H226 lung = test system: NCI-H226 lung
RPMI-8226 leukemia = test system: RPMI-8226 leukemia
SNB-19 CNS = test system: SNB-19 CNS
UO-31 renal = test system: UO-31 renal
COLO 205 colon = test system: COLO 205 colon
T-47D breast = test system: T-47D breast

| Compound | TGI (786-0 renal) | GI50 (K-562 leukemia) | TGI (LOX IMVI melanoma) | TGI (MDA-MB-231 breast) | TGI (NCI-H226 lung) | GI50 (RPMI-8226 leukemia) | TGI (SNB-19 CNS) | TGI (UO-31 renal) | TGI (K-562 leukemia) | TGI (RPMI-8226 leukemia) | TGI (COLO 205 colon) | TGI (T-47D breast) | GI50 (COLO 205 colon) | GI50 (LOX IMVI melanoma) | GI50 (MDA-MB-231 breast) | GI50 (NCI-H226 lung) | GI50 (UO-31 renal) |
| --- | --- | --- | --- | --- | --- | --- | --- | --- | --- | --- | --- | --- | --- | --- | --- | --- | --- |
| COc1ccc2c(c1)/c(=C/c1ccc(N(C)C)cc1)c1cc(-c3ccccc3)[n+](C)n12 | 1.6 µM | 0.0487 µM | 1.51 µM | 1.08 µM | 0.785 µM | 0.0555 µM | 1.21 µM | 3.28 µM |  |  |  |  |  |  |  |  |  |
| COc1cc(/C=C2\CCC(C)C3=C2NC(=S)NC3c2cc(OC)c(OC)c(OC)c2)cc(OC)c1OC (stereo unspecified) | > 100 µM |  | > 100 µM | > 100 µM |  |  | > 100 µM | 66 µM | > 100 µM | 68.4 µM |  |  |  |  |  |  |  |
| O=C1c2cccc3cccc(c23)C(=O)N1CCCNOCCONCCCN1C(=O)c2cccc3cccc(c23)C1=O | > 100 µM |  | > 100 µM | > 100 µM | > 100 µM |  | > 100 µM | > 100 µM | > 100 µM | 74.4 µM | > 100 µM |  |  |  |  |  |  |
| COc1cc2c(cc1OC)-c1c3c(cc4c1[C@@H](C2)N(C)CC4)OCO3 |  |  | 75 µM |  | 23 µM |  | 59.9 µM | 49.3 µM | 33.9 µM | 22.8 µM | 32.1 µM |  |  |  |  |  |  |
| O=C(NCCCNCCNC(=O)c1cc(-c2ccccc2)nc2ccccc12)c1cc(-c2ccccc2)nc2ccccc12 | 3.24 µM |  | 2.95 µM | 3.52 µM | 5.05 µM |  | 3.93 µM | 3.89 µM | 4.45 µM |  | 3.21 µM |  |  |  |  |  |  |
| COC(=O)C1(Cc2ccccc2)Cc2ccccc2C1 | 81.9 µM |  | 88 µM | > 100 µM | 78.3 µM |  |  | 55.9 µM | 52.3 µM | 57.9 µM | 35.8 µM | 90.8 µM |  |  |  |  |  |
| Cc1ccc(-c2n[nH]c(=O)[nH]2)cc1[N+](=O)[O-] | > 100 µM |  | > 100 µM |  | > 100 µM |  | > 100 µM | > 100 µM | > 100 µM | > 100 µM | > 100 µM | > 100 µM |  |  |  |  |  |
| O=C(N[C@H]1c2ccsc2/C(=N/O)[C@H]1O)C(F)(F)F |  |  | > 100 µM |  | > 100 µM |  | > 100 µM | > 100 µM | > 100 µM |  | > 100 µM | > 100 µM |  |  |  |  |  |
| S=C(S)NCC1CCC(CNC(=S)S)CC1 (stereo unspecified) | 18.6 µM |  | 40.8 µM | 70.1 µM |  |  | > 100 µM | 47.5 µM | > 100 µM | > 100 µM | > 100 µM | 38.9 µM |  |  |  |  |  |
| O=c1[nH]nc(Cc2ccccc2)n1-n1cnnc1 | > 100 µM |  | > 100 µM | > 100 µM |  |  | > 100 µM | > 100 µM | > 100 µM | > 100 µM | > 100 µM |  |  |  |  |  |  |
| COc1ccc(/C=C2\N=C(c3ccccc3)N(C3Nc4cc5c(cc4S3)NC(N3C(=O)/C(=C/c4ccc(OC)cc4)N=C3c3ccccc3)S5)C2=O)cc1 (stereo unspecified) | > 100 µM |  | > 100 µM | > 100 µM | > 100 µM |  |  | > 100 µM | > 100 µM | 86.7 µM |  | > 100 µM |  |  |  |  |  |
| CCCCOCn1c(=O)[nH]c(=O)c2cc(Br)ccc21 | > 100 µM |  | > 100 µM | > 100 µM | 46.9 µM |  | > 100 µM | 52.6 µM | > 100 µM |  | > 100 µM |  |  |  |  |  |  |
| CC(C)CNC(=O)Cn1c(-c2ccccc2)cc2ccccc21 | > 100 µM |  | > 100 µM |  | > 100 µM |  | > 100 µM | > 100 µM | > 100 µM | > 100 µM | > 100 µM | > 100 µM |  |  |  |  |  |
| CCc1ccc2c(c1)CC1(C2)Cc2cc3c(cc2C1)C(=O)CC3 (stereo unspecified) | 60.2 µM |  | 37 µM | 87.7 µM | 67 µM |  |  | 92.9 µM | 11.9 µM | 50.7 µM | 17.5 µM | 85 µM |  |  |  |  |  |
| C=CC[C@@]1(C(=O)OC)[C@H](Sc2ccccc2)C1(C)C | > 100 µM |  |  | > 100 µM | > 100 µM |  | > 100 µM | > 100 µM |  | 26.4 µM | > 100 µM | > 100 µM |  |  |  |  |  |
| CC(C)(C)OC(=O)NC(Cc1ccccc1)C(=O)NC(Cc1ccccc1)C(=O)NCC(=O)OCc1ccccc1 (stereo not drawn) (Boc-Phe-Phe-Gly-OBn; configuration not given here) | 31.6 µM |  | 24.5 µM |  |  |  | > 100 µM | > 100 µM | 31.4 µM | 39.6 µM | > 100 µM | > 100 µM |  |  |  |  |  |
| C[C@]12CC[C@@H]3c4ccc(OC(=O)c5ccccc5)cc4CC[C@H]3[C@@H]1CC[C@@H]2Oc1c2ccccc2nc2ccccc12 | 14.3 µM |  | 15.6 µM | 35.2 µM | 48 µM |  | 15.5 µM | > 50 µM | 17.8 µM | 18.1 µM | > 50 µM |  |  |  |  |  |  |
| C[C@]12CC[C@H](O)CC1=CC[C@@H]1[C@@H]2CC[C@]2(C)/C(=N/OCCN3CCCC3)CC[C@@H]12 | 33.6 µM |  | 33.4 µM | 36.9 µM | 30 µM |  | 72.1 µM | 35.3 µM | 21.6 µM | 38.4 µM | 30.1 µM |  |  |  |  |  |  |
| c1ccc2c(Cc3nnc4sc(SSc5nn6c(Cc7c[nH]c8ccccc78)nnc6s5)nn34)c[nH]c2c1 | 47.6 µM |  |  |  |  |  | > 100 µM | 46.7 µM | 46.5 µM |  | 50.9 µM | > 100 µM |  |  |  |  |  |
| CN(C)CCCOCCn1c2c(c3ccccc31)CCCC2 | 28.9 µM |  | 31.5 µM | 26.6 µM | 63.5 µM |  |  | 36.9 µM | 58.5 µM | 33.9 µM | 32.3 µM | 49.7 µM |  |  |  |  |  |
| COc1ccc(C(=O)N2c3ccccc3Sc3ccccc32)c(C(F)(F)F)c1 |  | 0.349 µM | > 100 µM | 92.2 µM | 83.8 µM | 0.595 µM |  | > 100 µM | > 100 µM | > 100 µM | 1.48 µM |  | 0.319 µM | 0.516 µM | 1.16 µM | 1.39 µM | 2.62 µM |
| NCCCCNCCCNC(=O)c1nc(-c2csc(CCN)n2)sc1Cl |  |  |  |  | > 100 µM |  | > 100 µM | > 100 µM | > 100 µM | > 100 µM | > 100 µM |  |  |  |  |  |  |
| c1ccc2c(c1)nc1n2CCSC1 | > 100 µM |  | > 100 µM | > 100 µM |  |  | > 100 µM | > 100 µM | > 100 µM | > 100 µM | > 100 µM | > 100 µM |  |  |  |  |  |
| CC(C)N(C)C(=O)C12C3C4C1C1C2C3C41C#N (stereo unspecified) | > 100 µM |  | > 100 µM | > 100 µM |  |  | > 100 µM | > 100 µM | > 100 µM |  | > 100 µM | > 100 µM |  |  |  |  |  |
